From paper PMC4767141, “Discovery of Potent, Orally Bioavailable, Small-Molecule Inhibitors of WNT Signaling from a Cell-Based Pathway Screen” (Journal of Medicinal Chemistry, 2015)

Assays:
A1 (h) = target: T1, A1 (h) (Homo sapiens, UniProt P30542); assay: CEREP binding panel; conditions: antagonist radioligand, read-out: % Inhibition of Control Specific Binding
T1 construct: purchased Millipore KinaseProfiler (kinases); Cerep (receptors and ion channels)

β1 (h) = target: T2, β1 (h) (Homo sapiens, UniProt P08588); assay: CEREP binding panel; conditions: agonist radioligand, read-out: % Inhibition of Control Specific Binding
T2 construct: purchased Millipore KinaseProfiler (kinases); Cerep (receptors and ion channels)

β2 (h) = target: T3, β2 (h) (Homo sapiens, UniProt P07550); assay: CEREP binding panel; conditions: agonist radioligand, read-out: % Inhibition of Control Specific Binding
T3 construct: purchased Millipore KinaseProfiler (kinases); Cerep (receptors and ion channels)

GABA (non-selective) = assay: CEREP binding panel; conditions: 10 μM, agonist radioligand
CCR1 (h) = target: T4, CCR1 (h) (Homo sapiens, UniProt P32246); assay: CEREP binding panel; conditions: agonist radioligand, read-out: % Inhibition of Control Specific Binding
T4 construct: purchased Millipore KinaseProfiler (kinases); Cerep (receptors and ion channels)

MC4 (h) = target: T5, MC4 (h) (Homo sapiens, UniProt P32245); assay: CEREP binding panel; conditions: agonist radioligand, read-out: % Inhibition of Control Specific Binding
T5 construct: purchased Millipore KinaseProfiler (kinases); Cerep (receptors and ion channels)

NK2 (h) = target: T6, NK2 (h) (Homo sapiens, UniProt P21452); assay: CEREP binding panel; conditions: agonist radioligand, read-out: % Inhibition of Control Specific Binding
T6 construct: purchased Millipore KinaseProfiler (kinases); Cerep (receptors and ion channels)

κ (KOP) = target: T7, κ (KOP) (Rattus norvegicus, UniProt P34975); assay: CEREP binding panel; conditions: 10 μM, agonist radioligand
T7 construct: purchased Millipore KinaseProfiler (kinases); Cerep (receptors and ion channels)

μ (MOP) (h) = target: T8, μ (MOP) (h) (Homo sapiens, UniProt P35372); assay: CEREP binding panel; conditions: 10 μM, agonist radioligand
T8 construct: purchased Millipore KinaseProfiler (kinases); Cerep (receptors and ion channels)

5-HT2A (h) = target: T9, 5-HT2A (h) (Homo sapiens, UniProt P28223); assay: CEREP binding panel; conditions: antagonist radioligand, read-out: % Inhibition of Control Specific Binding
T9 construct: purchased Millipore KinaseProfiler (kinases); Cerep (receptors and ion channels)

sst (non-selective) = assay: CEREP binding panel; conditions: 10 μM, agonist radioligand
CAMKI = target: T10, CAMKI (Homo sapiens, UniProt Q14012); assay: Millipore kinase panel; type: biochemical; conditions: read-out: % Control
T10 construct: purchased Millipore KinaseProfiler (kinases); Cerep (receptors and ion channels)

CDK3/CYCLINE = target: T11, CDK3/CYCLINE (Homo sapiens, UniProt Q00526); assay: Millipore kinase panel; type: biochemical; conditions: read-out: % Control
T11 construct: purchased Millipore KinaseProfiler (kinases); Cerep (receptors and ion channels)

CDK5/P25 = target: T12, CDK5/P25 (Homo sapiens, UniProt Q00535); assay: Millipore kinase panel; type: biochemical; conditions: read-out: % Control
T12 construct: purchased Millipore KinaseProfiler (kinases); Cerep (receptors and ion channels)

CDK9/CYCLINT1 = target: T13, CDK9/CYCLINT1 (Homo sapiens, UniProt P50750); assay: Millipore kinase panel; type: biochemical; conditions: read-out: % Control
T13 construct: purchased Millipore KinaseProfiler (kinases); Cerep (receptors and ion channels)

CK2 = target: T14, CK2 (Homo sapiens, UniProt P68400); assay: Millipore kinase panel; type: biochemical; conditions: read-out: % Control
T14 construct: purchased Millipore KinaseProfiler (kinases); Cerep (receptors and ion channels)

CSK = target: T15, CSK (Homo sapiens, UniProt P41240); assay: Millipore kinase panel; type: biochemical; conditions: read-out: % Control
T15 construct: purchased Millipore KinaseProfiler (kinases); Cerep (receptors and ion channels)

DAPK2 = target: T16, DAPK2 (Homo sapiens, UniProt Q9UIK4); assay: Millipore kinase panel; type: biochemical; conditions: read-out: % Control
T16 construct: purchased Millipore KinaseProfiler (kinases); Cerep (receptors and ion channels)

EPHA5 = target: T17, EPHA5 (Homo sapiens, UniProt P54756); assay: Millipore kinase panel; type: biochemical; conditions: read-out: % Control
T17 construct: purchased Millipore KinaseProfiler (kinases); Cerep (receptors and ion channels)

FGFR1 = target: T18, FGFR1 (Homo sapiens, UniProt P11362); assay: Millipore kinase panel; type: biochemical; conditions: read-out: % Control
T18 construct: purchased Millipore KinaseProfiler (kinases); Cerep (receptors and ion channels)

FGFR4 = target: T19, FGFR4 (Homo sapiens, UniProt P22455); assay: Millipore kinase panel; type: biochemical; conditions: read-out: % Control
T19 construct: purchased Millipore KinaseProfiler (kinases); Cerep (receptors and ion channels)

FLT1 = target: T20, FLT1 (Homo sapiens, UniProt P17948); assay: Millipore kinase panel; type: biochemical; conditions: read-out: % Control
T20 construct: purchased Millipore KinaseProfiler (kinases); Cerep (receptors and ion channels)

FYN = target: T21, FYN (Homo sapiens, UniProt P06241); assay: Millipore kinase panel; type: biochemical; conditions: read-out: % Control
T21 construct: purchased Millipore KinaseProfiler (kinases); Cerep (receptors and ion channels)

IRAK1 = target: T22, IRAK1 (Homo sapiens, UniProt P51617); assay: Millipore kinase panel; type: biochemical; conditions: read-out: % Control
T22 construct: purchased Millipore KinaseProfiler (kinases); Cerep (receptors and ion channels)

CKIT = target: T23, CKIT (Homo sapiens, UniProt P10721); assay: Millipore kinase panel; type: biochemical; conditions: read-out: % Control
T23 construct: purchased Millipore KinaseProfiler (kinases); Cerep (receptors and ion channels)

LOK = target: T24, LOK (Homo sapiens, UniProt O94804); assay: Millipore kinase panel; type: biochemical; conditions: read-out: % Control
T24 construct: purchased Millipore KinaseProfiler (kinases); Cerep (receptors and ion channels)

MINK = target: T25, MINK (Homo sapiens, UniProt Q8N4C8); assay: Millipore kinase panel; type: biochemical; conditions: read-out: % Control
T25 construct: purchased Millipore KinaseProfiler (kinases); Cerep (receptors and ion channels)

MKK7BETA = target: T26, MKK7BETA (Homo sapiens, UniProt O14733); assay: Millipore kinase panel; type: biochemical; conditions: read-out: % Control
T26 construct: purchased Millipore KinaseProfiler (kinases); Cerep (receptors and ion channels)

MLK1 = target: T27, MLK1 (Homo sapiens, UniProt P80192); assay: Millipore kinase panel; type: biochemical; conditions: read-out: % Control
T27 construct: purchased Millipore KinaseProfiler (kinases); Cerep (receptors and ion channels)

PAK5 = target: T28, PAK5 (Homo sapiens, UniProt Q9P286); assay: Millipore kinase panel; type: biochemical; conditions: read-out: % Control
T28 construct: purchased Millipore KinaseProfiler (kinases); Cerep (receptors and ion channels)

PDGFRALPHA = target: T29, PDGFRALPHA (Homo sapiens, UniProt P16234); assay: Millipore kinase panel; type: biochemical; conditions: read-out: % Control
T29 construct: purchased Millipore KinaseProfiler (kinases); Cerep (receptors and ion channels)

PKCZETA = target: T30, PKCZETA (Homo sapiens, UniProt Q05513); assay: Millipore kinase panel; type: biochemical; conditions: read-out: % Control
T30 construct: purchased Millipore KinaseProfiler (kinases); Cerep (receptors and ion channels)

PRKX = target: T31, PRKX (Homo sapiens, UniProt P51817); assay: Millipore kinase panel; type: biochemical; conditions: read-out: % Control
T31 construct: purchased Millipore KinaseProfiler (kinases); Cerep (receptors and ion channels)

RSK3 = target: T32, RSK3 (Homo sapiens, UniProt Q15349); assay: Millipore kinase panel; type: biochemical; conditions: read-out: % Control
T32 construct: purchased Millipore KinaseProfiler (kinases); Cerep (receptors and ion channels)

SAPK3 = target: T33, SAPK3 (Homo sapiens, UniProt P53778); assay: Millipore kinase panel; type: biochemical; conditions: read-out: % Control
T33 construct: purchased Millipore KinaseProfiler (kinases); Cerep (receptors and ion channels)

SGK2 = target: T34, SGK2 (Homo sapiens, UniProt Q9HBY8); assay: Millipore kinase panel; type: biochemical; conditions: read-out: % Control
T34 construct: purchased Millipore KinaseProfiler (kinases); Cerep (receptors and ion channels)

SGK3 = target: T35, SGK3 (Homo sapiens, UniProt Q96BR1); assay: Millipore kinase panel; type: biochemical; conditions: read-out: % Control
T35 construct: purchased Millipore KinaseProfiler (kinases); Cerep (receptors and ion channels)

SRC = target: T36, SRC (Homo sapiens, UniProt P12931); assay: Millipore kinase panel; type: biochemical; conditions: read-out: % Control
T36 construct: purchased Millipore KinaseProfiler (kinases); Cerep (receptors and ion channels)

TAK1 = target: T37, TAK1 (Homo sapiens, UniProt O43318); assay: Millipore kinase panel; type: biochemical; conditions: read-out: % Control
T37 construct: purchased Millipore KinaseProfiler (kinases); Cerep (receptors and ion channels)

TSSK1 = target: T38, TSSK1 (Homo sapiens, UniProt Q9BXA7); assay: Millipore kinase panel; type: biochemical; conditions: read-out: % Control
T38 construct: purchased Millipore KinaseProfiler (kinases); Cerep (receptors and ion channels)

ZAP-70 = target: T39, ZAP-70 (Homo sapiens, UniProt P43403); assay: Millipore kinase panel; type: biochemical; conditions: read-out: % Control
T39 construct: purchased Millipore KinaseProfiler (kinases); Cerep (receptors and ion channels)

CK1GAMMA1 = target: T40, CK1GAMMA1 (Homo sapiens, UniProt Q9HCP0); assay: Millipore kinase panel; type: biochemical; conditions: read-out: % Control
T40 construct: purchased Millipore KinaseProfiler (kinases); Cerep (receptors and ion channels)

ULK3 = target: T41, ULK3 (Homo sapiens, UniProt Q6PHR2); assay: Millipore kinase panel; type: biochemical; conditions: read-out: % Control
T41 construct: purchased Millipore KinaseProfiler (kinases); Cerep (receptors and ion channels)

PLK1 = target: T42, PLK1 (Homo sapiens, UniProt P53350); assay: Millipore kinase panel; type: biochemical; conditions: read-out: % Control
T42 construct: purchased Millipore KinaseProfiler (kinases); Cerep (receptors and ion channels)

T2 sequence (P08588 whole entry): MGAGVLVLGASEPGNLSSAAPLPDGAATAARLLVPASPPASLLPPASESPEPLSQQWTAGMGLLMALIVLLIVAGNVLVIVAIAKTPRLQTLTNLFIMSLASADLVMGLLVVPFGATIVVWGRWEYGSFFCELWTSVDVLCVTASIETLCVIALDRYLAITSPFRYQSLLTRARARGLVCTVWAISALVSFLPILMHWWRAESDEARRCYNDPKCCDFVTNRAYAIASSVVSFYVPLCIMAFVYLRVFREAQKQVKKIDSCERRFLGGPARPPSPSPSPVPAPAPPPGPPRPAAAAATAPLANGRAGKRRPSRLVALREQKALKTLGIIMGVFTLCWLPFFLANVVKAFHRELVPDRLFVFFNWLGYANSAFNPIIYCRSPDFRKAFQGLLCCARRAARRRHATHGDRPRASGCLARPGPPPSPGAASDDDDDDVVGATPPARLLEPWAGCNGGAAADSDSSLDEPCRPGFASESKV
T37 sequence (O43318 1-303 limits assumed): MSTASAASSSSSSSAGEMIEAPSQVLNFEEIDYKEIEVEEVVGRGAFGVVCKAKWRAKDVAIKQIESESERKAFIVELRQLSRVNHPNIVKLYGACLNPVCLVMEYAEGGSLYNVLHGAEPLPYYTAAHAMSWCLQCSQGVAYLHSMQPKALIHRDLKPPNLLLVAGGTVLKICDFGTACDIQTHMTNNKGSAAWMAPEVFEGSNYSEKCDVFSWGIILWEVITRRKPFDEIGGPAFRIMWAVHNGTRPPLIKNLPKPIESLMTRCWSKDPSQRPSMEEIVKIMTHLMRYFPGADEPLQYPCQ
T5 sequence (P32245 whole entry): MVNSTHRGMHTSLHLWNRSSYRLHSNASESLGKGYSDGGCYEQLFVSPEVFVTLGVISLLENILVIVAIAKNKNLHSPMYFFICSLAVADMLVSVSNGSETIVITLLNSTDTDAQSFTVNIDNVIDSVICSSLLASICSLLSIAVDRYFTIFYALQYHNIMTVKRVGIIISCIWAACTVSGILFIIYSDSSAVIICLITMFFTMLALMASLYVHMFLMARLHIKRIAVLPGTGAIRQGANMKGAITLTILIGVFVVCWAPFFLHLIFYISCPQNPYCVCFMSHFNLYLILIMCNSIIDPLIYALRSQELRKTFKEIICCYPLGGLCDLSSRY
T26 sequence (O14733 whole entry): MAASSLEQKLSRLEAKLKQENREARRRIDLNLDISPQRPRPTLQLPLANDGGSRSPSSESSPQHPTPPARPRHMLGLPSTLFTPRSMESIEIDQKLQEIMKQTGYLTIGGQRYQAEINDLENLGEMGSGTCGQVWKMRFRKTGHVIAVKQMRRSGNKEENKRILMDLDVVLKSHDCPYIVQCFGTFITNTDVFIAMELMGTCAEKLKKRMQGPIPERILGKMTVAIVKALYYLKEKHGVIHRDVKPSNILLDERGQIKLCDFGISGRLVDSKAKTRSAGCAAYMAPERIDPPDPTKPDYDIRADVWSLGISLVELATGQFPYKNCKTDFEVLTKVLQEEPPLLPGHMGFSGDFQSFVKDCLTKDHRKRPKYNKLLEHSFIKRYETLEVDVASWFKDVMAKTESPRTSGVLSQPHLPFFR
T34 sequence (Q9HBY8 whole entry): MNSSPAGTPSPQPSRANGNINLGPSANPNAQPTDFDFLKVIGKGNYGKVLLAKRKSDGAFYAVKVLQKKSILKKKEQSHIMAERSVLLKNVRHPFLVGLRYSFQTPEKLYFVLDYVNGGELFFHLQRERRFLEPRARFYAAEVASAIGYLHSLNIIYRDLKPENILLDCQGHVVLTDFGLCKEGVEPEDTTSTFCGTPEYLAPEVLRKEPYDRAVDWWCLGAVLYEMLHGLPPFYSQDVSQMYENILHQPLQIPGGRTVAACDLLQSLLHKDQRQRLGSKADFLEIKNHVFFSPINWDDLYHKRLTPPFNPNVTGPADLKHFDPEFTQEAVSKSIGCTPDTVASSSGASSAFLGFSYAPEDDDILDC
T32 sequence (Q15349 whole entry): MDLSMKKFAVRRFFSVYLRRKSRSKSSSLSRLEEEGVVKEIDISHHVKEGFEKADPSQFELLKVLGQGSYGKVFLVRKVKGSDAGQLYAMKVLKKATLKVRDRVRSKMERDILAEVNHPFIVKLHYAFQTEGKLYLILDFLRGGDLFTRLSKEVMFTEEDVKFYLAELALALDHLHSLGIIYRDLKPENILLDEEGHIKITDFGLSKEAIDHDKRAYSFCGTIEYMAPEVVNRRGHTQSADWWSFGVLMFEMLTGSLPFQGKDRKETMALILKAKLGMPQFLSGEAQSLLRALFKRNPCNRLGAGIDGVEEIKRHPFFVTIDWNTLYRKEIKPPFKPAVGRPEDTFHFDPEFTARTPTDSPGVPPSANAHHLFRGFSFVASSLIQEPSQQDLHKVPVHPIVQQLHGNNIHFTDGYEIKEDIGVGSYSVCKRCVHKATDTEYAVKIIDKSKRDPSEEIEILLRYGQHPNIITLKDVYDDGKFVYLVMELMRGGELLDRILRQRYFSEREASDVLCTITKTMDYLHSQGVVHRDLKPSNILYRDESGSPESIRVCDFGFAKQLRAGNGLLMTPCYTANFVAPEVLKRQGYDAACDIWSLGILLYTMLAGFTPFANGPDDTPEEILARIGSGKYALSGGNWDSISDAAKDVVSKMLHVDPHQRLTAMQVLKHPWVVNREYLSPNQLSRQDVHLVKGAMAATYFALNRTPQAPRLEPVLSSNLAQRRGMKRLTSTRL
T27 sequence (P80192 whole entry): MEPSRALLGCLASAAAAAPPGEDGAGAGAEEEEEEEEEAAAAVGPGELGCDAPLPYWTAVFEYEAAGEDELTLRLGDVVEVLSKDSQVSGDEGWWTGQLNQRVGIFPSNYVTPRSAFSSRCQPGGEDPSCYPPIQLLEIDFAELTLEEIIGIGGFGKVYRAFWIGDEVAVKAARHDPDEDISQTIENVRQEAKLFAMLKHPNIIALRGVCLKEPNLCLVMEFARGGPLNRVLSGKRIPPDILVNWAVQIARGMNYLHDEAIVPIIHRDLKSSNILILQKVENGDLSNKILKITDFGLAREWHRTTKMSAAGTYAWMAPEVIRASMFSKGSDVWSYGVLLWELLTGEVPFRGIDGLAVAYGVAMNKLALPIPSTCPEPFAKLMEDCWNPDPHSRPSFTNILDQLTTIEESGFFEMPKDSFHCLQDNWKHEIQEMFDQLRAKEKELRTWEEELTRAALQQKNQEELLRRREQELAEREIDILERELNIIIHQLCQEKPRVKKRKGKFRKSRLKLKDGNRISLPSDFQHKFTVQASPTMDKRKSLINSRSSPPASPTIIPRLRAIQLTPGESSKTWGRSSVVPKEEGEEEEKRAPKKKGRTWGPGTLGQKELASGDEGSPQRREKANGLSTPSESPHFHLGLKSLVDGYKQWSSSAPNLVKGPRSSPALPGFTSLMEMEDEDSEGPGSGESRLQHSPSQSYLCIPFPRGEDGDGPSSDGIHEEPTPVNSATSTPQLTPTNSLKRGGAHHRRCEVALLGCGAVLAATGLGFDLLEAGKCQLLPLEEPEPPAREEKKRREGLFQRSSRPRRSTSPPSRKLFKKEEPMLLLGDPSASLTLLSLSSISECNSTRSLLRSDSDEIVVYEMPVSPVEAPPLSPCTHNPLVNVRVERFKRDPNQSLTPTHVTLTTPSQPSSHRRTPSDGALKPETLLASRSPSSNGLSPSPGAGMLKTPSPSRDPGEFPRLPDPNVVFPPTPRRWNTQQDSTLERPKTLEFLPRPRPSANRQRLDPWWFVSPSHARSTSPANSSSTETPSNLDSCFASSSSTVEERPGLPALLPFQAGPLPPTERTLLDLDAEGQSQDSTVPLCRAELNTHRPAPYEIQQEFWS
T38 sequence (Q9BXA7 whole entry): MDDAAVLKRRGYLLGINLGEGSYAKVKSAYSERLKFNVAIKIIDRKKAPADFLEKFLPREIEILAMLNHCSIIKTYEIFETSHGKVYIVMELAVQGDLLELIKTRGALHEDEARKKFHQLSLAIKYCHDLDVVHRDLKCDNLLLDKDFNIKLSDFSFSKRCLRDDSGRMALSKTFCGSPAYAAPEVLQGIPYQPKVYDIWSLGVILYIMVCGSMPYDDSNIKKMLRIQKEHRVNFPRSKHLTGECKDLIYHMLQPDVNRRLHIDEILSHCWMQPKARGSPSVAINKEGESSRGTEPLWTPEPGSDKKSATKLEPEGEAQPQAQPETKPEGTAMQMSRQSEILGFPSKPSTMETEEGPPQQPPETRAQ
T41 sequence (Q6PHR2 whole entry): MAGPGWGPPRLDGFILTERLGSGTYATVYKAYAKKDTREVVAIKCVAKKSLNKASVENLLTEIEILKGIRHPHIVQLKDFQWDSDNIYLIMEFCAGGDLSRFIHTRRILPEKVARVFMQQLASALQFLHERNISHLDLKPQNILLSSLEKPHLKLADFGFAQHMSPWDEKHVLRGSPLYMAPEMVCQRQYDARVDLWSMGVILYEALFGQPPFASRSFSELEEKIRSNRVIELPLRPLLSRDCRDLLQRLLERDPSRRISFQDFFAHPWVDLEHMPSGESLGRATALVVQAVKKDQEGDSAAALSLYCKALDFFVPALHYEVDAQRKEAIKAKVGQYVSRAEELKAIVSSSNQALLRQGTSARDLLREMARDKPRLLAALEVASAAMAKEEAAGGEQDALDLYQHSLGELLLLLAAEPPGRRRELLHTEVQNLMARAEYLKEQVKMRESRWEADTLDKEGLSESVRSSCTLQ
T31 sequence (P51817 whole entry): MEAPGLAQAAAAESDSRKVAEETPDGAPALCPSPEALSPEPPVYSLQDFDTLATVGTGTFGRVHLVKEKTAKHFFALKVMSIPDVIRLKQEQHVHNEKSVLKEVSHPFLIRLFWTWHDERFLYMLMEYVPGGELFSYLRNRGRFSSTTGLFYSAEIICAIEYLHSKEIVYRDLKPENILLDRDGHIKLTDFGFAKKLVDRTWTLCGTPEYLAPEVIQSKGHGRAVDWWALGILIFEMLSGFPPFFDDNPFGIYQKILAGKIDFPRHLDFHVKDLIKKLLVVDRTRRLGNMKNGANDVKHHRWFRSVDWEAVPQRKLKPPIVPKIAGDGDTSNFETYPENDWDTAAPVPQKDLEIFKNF

Compound: Cn1cc(-c2ccc(-c3cncc(Cl)c3N3CCC4(CCNC4=O)CC3)cc2)cn1 [Compound 74, 8-(3-Chloro-5-(4-(1-methyl-1H-pyrazol-4-yl)phenyl)pyridin-4-yl)-2,8-diazaspiro[4.5]decan-1-one]
- inhibition at 10 µM (A1 (h)): -12%
- inhibition at 10 µM (β1 (h)): 5%
- inhibition at 10 µM (β2 (h)): 6%
- % Inhibition of Control Specific Binding (GABA (non-selective)): 5%
- inhibition at 10 µM (CCR1 (h)): -4%
- inhibition at 10 µM (MC4 (h)): 4%
- inhibition at 10 µM (NK2 (h)): -17%
- % Inhibition of Control Specific Binding (κ (KOP)): 72%
- % Inhibition of Control Specific Binding (μ (MOP) (h)): 42%
- inhibition at 10 µM (5-HT2A (h)): 1%
- % Inhibition of Control Specific Binding (sst (non-selective)): 4%
- remaining activity at 1 µM (CAMKI): -12%
- remaining activity at 1 µM (CDK3/CYCLINE): 1%
- remaining activity at 1 µM (CDK5/P25): -21%
- remaining activity at 1 µM (CDK9/CYCLINT1): -29%
- remaining activity at 1 µM (CK2): -7%
- remaining activity at 1 µM (CSK): 0%
- remaining activity at 1 µM (DAPK2): 13%
- remaining activity at 1 µM (EPHA5): 6%
- remaining activity at 1 µM (FGFR1): -49%
- remaining activity at 1 µM (FGFR4): 0%
- remaining activity at 1 µM (FLT1): -5%
- remaining activity at 1 µM (FYN): 1%
- remaining activity at 1 µM (IRAK1): -9%
- remaining activity at 1 µM (CKIT): 13%
- remaining activity at 1 µM (LOK): -6%
- remaining activity at 1 µM (MINK): -12%
- remaining activity at 1 µM (MKK7BETA): 68%
- remaining activity at 1 µM (MLK1): -5%
- remaining activity at 1 µM (PAK5): 4%
- remaining activity at 1 µM (PDGFRALPHA): -5%
- remaining activity at 1 µM (PKCZETA): -7%
- remaining activity at 1 µM (PRKX): 2%
- remaining activity at 1 µM (RSK3): -5%
- remaining activity at 1 µM (SAPK3): 13%
- remaining activity at 1 µM (SGK2): -17%
- remaining activity at 1 µM (SGK3): -9%
- remaining activity at 1 µM (SRC): -6%
- remaining activity at 1 µM (TAK1): 6%
- remaining activity at 1 µM (TSSK1): 2%
- remaining activity at 1 µM (ZAP-70): 6%
- remaining activity at 1 µM (CK1GAMMA1): -25%
- remaining activity at 1 µM (ULK3): -2%
- remaining activity at 1 µM (PLK1): -4%
